Assay results reported in ChEMBL document CHEMBL6087397, “H2S-releasing oridonin derivatives with improved antitumor activity by inhibiting the PI3K/AKT pathway” (Bioorg Med Chem, 2024).
The source made the active and inactive calls. The rule behind the calls is not given here.

Key:
PANC-1 = test: Antiproliferative activity against human PANC-1 cells assessed as inhibition of cell proliferation incubated for 48 hrs by CCK-8 assay; format: functional, cell-based; details: PANC-1, 48 h
MCF7 [1] = test: Induction of apoptosis in human MCF7 cells assessed as increase in Cyt-C level at 1.25 to 5.0 uM incubated for 48 hrs by Western blotting analysis; format: functional, cell-based; details: dose 1.25-5 µM
[2] = Toxicity in female BALB/c mouse xenografted with mouse 4T1 cells assessed as morphological change in kidney at 10 mg/kg, ip administered every 2 days by H and E staining based analysis; format: organism-based; details: in vivo, 48 h
MCF7 [3] = test: Induction of apoptosis in human MCF7 cells assessed as early apoptotic cells at 10 uM incubated for 48 hrs by Annexin V-FITC/PI staining based flow cytometric analysis (reference value: 20.2%); format: functional
4T1 [4] = test: Antitumor activity against mouse 4T1 cells xenografted in female BALB/c mouse assessed as tumor inhibition rate at 10 mg/kg, ip administered every 2 days relative to control; format: functional; details: 4T1, 48 h, read-out: TGI
[5] = Toxicity in female BALB/c mouse xenografted with mouse 4T1 cells assessed as change in body weight at 10 mg/kg, ip administered every 2 days; format: organism-based; details: in vivo, 48 h
MCF7 [6] = test: Induction of mitochondrial apoptosis pathway in human MCF7 cells assessed as downregulation of pro-caspase-9 expression at 1.25 to 5.0 uM incubated for 48 hrs by Western blotting analysis; format: functional, cell-based; details: dose 1.25-5 µM
4T1 [7] = test: Antitumor activity against mouse 4T1 cells xenografted in female BALB/c mouse assessed as reduction in tumor volume at 10 mg/kg, ip administered every 2 days; format: functional, organism-based
MCF7 [8] = test: Induction of cell cycle arrest in human MCF7 cells assessed as increase in accumulation of cells at G2/M phase at 10 uM incubated for 48 hrs by PI staining based flow cytometric analysis (reference value: 6.7%); format: functional
MIA PaCa-2 [9] = test: Induction of apoptosis in human MIA PaCa-2 cells assessed as increase in Bax/Bcl-2 ratio at 1.25 to 5.0 uM incubated for 48 hrs by Western blotting analysis; format: functional, cell-based; details: dose 1.25-5 µM
MIA PaCa-2 [10] = test: Induction of mitochondrial dysfunction in human MIA PaCa-2 cells assessed as decrease in MMP level at 2.5 to 5.0 uM by measuring green fluorescence incubated for 48 hrs by JC-1 staining based flow cytometric analysis; format: functional, cell-based; details: dose 2.5-5 µM
MIA PaCa-2 [11] = test: Inhibition of AKT expression in human MIA PaCa-2 cells at 1.25 to 5.0 uM incubated for 48 hrs by Western blotting analysis; format: functional, cell-based; details: dose 1.25-5 µM
MCF7 [12] = test: Induction of apoptosis in human MCF7 cells assessed as increase in nuclear fragmentation at 2.5 uM incubated for 48 hrs by Hoechst 33342 staining based fluorescence microscopic analysis; format: functional, cell-based
MCF7 [13] = test: Induction of apoptosis in human MCF7 cells assessed as late apoptotic cells at 20 uM incubated for 48 hrs by Annexin V-FITC/PI staining based flow cytometric analysis (reference value: 20.2%); format: functional
MCF7 [14] = test: Induction of mitochondrial dysfunction in human MCF7 cells assessed as decrease in MMP level at 2.5 to 5.0 uM by measuring green fluorescence incubated for 48 hrs by JC-1 staining based flow cytometric analysis; format: functional, cell-based; details: dose 2.5-5 µM
MIA PaCa-2 [15] = test: Induction of cell cycle arrest in human MIA PaCa-2 cells assessed as increase in accumulation of cells at S phase at 2.5 uM incubated for 48 hrs by PI staining based flow cytometric analysis (reference value: 9.38%); format: functional
HepG2 = test: Antiproliferative activity against human HepG2 cells assessed as inhibition of cell proliferation incubated for 48 hrs by CCK-8 assay; format: functional, cell-based; details: HepG2, 48 h
MCF7 [16] = test: Induction of apoptosis in human MCF7 cells assessed as increase in cleaved PARP level at 1.25 to 5.0 uM incubated for 48 hrs by Western blotting analysis; format: functional, cell-based; details: dose 1.25-5 µM
MIA PaCa-2 [17] = test: Induction of apoptosis in human MIA PaCa-2 cells assessed as early apoptotic cells at 10 uM incubated for 48 hrs by Annexin V-FITC/PI staining based flow cytometric analysis (reference value: 7.3%); format: functional
MIA PaCa-2 [18] = test: Induction of apoptosis in human MIA PaCa-2 cells assessed as upregulation of Cyt-C expression at 1.25 to 5.0 uM incubated for 48 hrs by Western blotting analysis; format: functional, cell-based; details: dose 1.25-5 µM
[19] = Toxicity in female BALB/c mouse xenografted with mouse 4T1 cells assessed as morphological change in spleen at 10 mg/kg, ip administered every 2 days by H and E staining based analysis; format: organism-based; details: in vivo, 48 h
MIA PaCa-2 [20] = test: Induction of apoptosis in human MIA PaCa-2 cells assessed as upregulation of cleaved caspase-9 expression at 1.25 to 5.0 uM incubated for 48 hrs by Western blotting analysis; format: functional, cell-based; details: dose 1.25-5 µM
MCF7 [21] = test: Induction of cell cycle arrest in human MCF7 cells assessed as increase in accumulation of cells at G2/M phase at 5 uM incubated for 48 hrs by PI staining based flow cytometric analysis (reference value: 6.7%); format: functional
MIA PaCa-2 [22] = test: Inhibition of colony formation in human MIA PaCa-2 cells assessed as reduction in number of colonies at 0.5 to 1.0 uM incubated for […] by crystal violet staining based microscopic analysis; format: functional, cell-based; details: dose 0.5-1 µM
MIA PaCa-2 [23] = test: Induction of cell cycle arrest in human MIA PaCa-2 cells assessed as increase in accumulation of cells at S phase at 5.0 uM incubated for 48 hrs by PI staining based flow cytometric analysis (reference value: 9.38%); format: functional
MIA PaCa-2 [24] = test: Induction of apoptosis in human MIA PaCa-2 cells assessed as increase in nuclear fragmentation at 2.5 uM incubated for 48 hrs by Hoechst 33342 staining based fluorescence microscopic analysis; format: functional, cell-based
MIA PaCa-2 [25] = test: Induction of mitochondrial dysfunction in human MIA PaCa-2 cells assessed as decrease in ATP level incubated for 48 hrs by ATP assay kit; format: functional, cell-based; details: dose 2.5-10 µM
MIA PaCa-2 [26] = test: Inhibition of PI3K expression in human MIA PaCa-2 cells at 1.25 to 5.0 uM incubated for 48 hrs by Western blotting analysis; format: functional, cell-based; details: dose 1.25-5 µM
MCF7 [27] = test: Induction of apoptosis in human MCF7 cells assessed as increase in cleaved caspase-3 level at 1.25 to 5.0 uM incubated for 48 hrs by Western blotting analysis; format: functional, cell-based; details: dose 1.25-5 µM
MIA PaCa-2 [28] = test: Induction of apoptosis in human MIA PaCa-2 cells assessed as increase in fluorescence intensity at 2.5 uM incubated for 48 hrs by Hoechst 33342 staining based fluorescence microscopic analysis; format: functional, cell-based
MCF7 [29] = test: Inhibition of cell migration in human MCF7 cells assessed as wider scratch areas incubated for 48 hrs by scratch assay; format: functional, cell-based; details: dose 0.5-1 µM
MCF7 [30] = test: Antiproliferative activity against human MCF7 cells assessed as inhibition of cell proliferation incubated for 48 hrs by CCK-8 assay; format: functional, cell-based; details: MCF7, 48 h
[31] = Toxicity in female BALB/c mouse xenografted with mouse 4T1 cells assessed as morphological change in liver at 10 mg/kg, ip administered every 2 days by H and E staining based analysis; format: organism-based; details: in vivo, 48 h
A549 = test: Antiproliferative activity against human A549 cells assessed as inhibition of cell proliferation incubated for 48 hrs by CCK-8 assay; format: functional, cell-based; details: A549, 48 h

C=C1C(=O)[C@]23[C@H](OC(=O)c4ccc(N=C=S)cc4)[C@H]1CC[C@H]2[C@@]12CO[C@]3(O)[C@@H](O)[C@@H]1C(C)(C)CC[C@@H]2O
IC50 (PANC-1): 17.7 µM | Activity (MCF7 [1]): Active | Activity [2]: Non-toxic | Activity (MCF7 [3]): 37% | inhibition in vivo at 10 mg/kg (4T1 [4]): 34.3% | Activity [5]: Non-toxic | Activity (MCF7 [6]): Active | Activity (4T1 [7]): Active | Activity (MCF7 [8]): 14% | Activity (MIA PaCa-2 [9]): Active | Activity (MIA PaCa-2 [10]): Active | inhibition (MIA PaCa-2 [11]): Active | Activity (MCF7 [12]): Active | Activity (MCF7 [13]): 57% | Activity (MCF7 [14]): Active | Activity (MIA PaCa-2 [15]): 36% | IC50 (HepG2): 7.48 µM | Activity (MCF7 [16]): Active | Activity (MIA PaCa-2 [17]): 56.8% | Activity (MIA PaCa-2 [18]): Active | Activity [19]: Non-toxic | Activity (MIA PaCa-2 [20]): Active | Activity (MCF7 [21]): 11.5% | inhibition (MIA PaCa-2 [22]): Active | Activity (MIA PaCa-2 [23]): 46.9% | Activity (MIA PaCa-2 [24]): Active | Activity (MIA PaCa-2 [25]): Dose-dependent-effect | inhibition (MIA PaCa-2 [26]): Active | Activity (MCF7 [27]): Active | Activity (MIA PaCa-2 [28]): Active | inhibition (MCF7 [29]): Dose-dependent-effect | IC50 (MCF7 [30]): 3.43 µM | Activity [31]: Non-toxic | IC50 (A549): 17.8 µM
